The values that follow come from ChEMBL document CHEMBL3880388, “Dihydropyrimidin-2(1H)-ones and dihydropyrimidin-2(1H)-thiones as inhibitors of sodium iodide symporter” (2014).

Each structure is given as a SMILES string.

Tested on in the first data set: not listed separately
The data set is described as follows: Cytotoxicity against rat FRTL5 cells assessed as effect on cell growth at 1 uM measured at 24 hrs by MTT assay. Format: cell-based. Conditions: frtl-5, 24 h. A general note: Tetrazolium dyes change colour on reduction, which living cells bring about.
Take `CC1=C(C(=O)OCc2ccccc2)C(c2ccccc2)NC(=O)N1` (centres undefined): the Activity result is “Non-Toxic”.
In the case of `CC1=C(C(=O)OCc2ccc3c(c2)OCO3)C(c2ccccc2)NC(=O)N1` (centres undefined), the Activity entry was “Non-Toxic”.
On to `CC1=C(C(=O)OCc2ccc3c(c2)OCO3)C(c2ccco2)NC(=O)N1` (centres undefined), for which the Activity entry was “Non-Toxic”.
Take `COc1cccc(COC(=O)C2=C(C)NC(=O)NC2c2ccco2)c1` (centres undefined): the Activity entry is “Non-Toxic”.
On to `CC1=C(C(=O)OCc2ccc3c(c2)OCO3)C(c2ccco2)N(C)C(=O)N1C` (centres undefined), for which the Activity result was “Non-Toxic”.
Consider `COc1ccc(COC(=O)C2=C(Cc3cccs3)NC(=O)NC2c2ccccc2)cc1` (centres undefined), for which the Activity result is “Non-Toxic”.
With `COc1ccc(COC(=O)C2=C(C)NC(=O)NC2c2ccsc2)cc1` (centres undefined), the Activity entry is reported as “Non-Toxic”.
Consider `COc1ccc(COC(=O)C2=C(C)NC(=O)NC2c2ccco2)cc1` (centres undefined), for which the Activity result is on record as “Non-Toxic”.
Regarding `CC1=C(C(=O)OCc2ccc(F)cc2)C(c2ccccc2)NC(=O)N1` (centres undefined), the Activity entry is “Non-Toxic”.
Regarding `COc1cccc(COC(=O)C2=C(C)N(C)C(=O)N(C)C2c2ccco2)c1` (centres undefined), the Activity result is listed as “Non-Toxic”.
On to `COc1ccc(COC(=O)C2=C(C)N(C)C(=O)N(C)C2c2ccco2)cc1` (centres undefined), for which the Activity result was “Non-Toxic”.
In the case of `COc1ccc(COC(=O)C2=C(C)NC(=O)NC2c2ccc(C)o2)cc1` (centres undefined), the Activity entry is recorded as “Non-Toxic”.
Turning to `COc1ccc(COC(=O)C2=C(C)NC(=O)NC2c2cccc(Cl)c2)cc1` (centres undefined), the Activity result is “Non-Toxic”.
As for `COc1ccc(COC(=O)C2=C(COc3ccccc3)NC(=O)NC2c2ccccc2)cc1` (centres undefined), the Activity entry was “Non-Toxic”.
For `CCC1=C(C(=O)OCc2ccc(OC)cc2)C(c2ccccc2)NC(=O)N1` (centres undefined), the Activity entry is reported as “Non-Toxic”.
The same measure, in the same setting: the result for `COc1ccc(COC(=O)C2=C(C)NC(=O)NC2c2ccoc2)cc1` (centres undefined) reads “Non-Toxic”.
`COc1ccc(COC(=O)C2=C(c3cccs3)NC(=O)NC2c2ccccc2)cc1` (centres undefined): the Activity result is “Non-Toxic”.
Turning to `COc1ccc(COC(=O)C2=C(C)N(C)C(=O)N(C)C2c2ccco2)cc1OC` (centres undefined), the Activity result was “Non-Toxic”.
With `CC1=C(C(=O)OCc2ccc(Cl)cc2)C(c2ccccc2)NC(=O)N1` (centres undefined), the Activity result is “Non-Toxic”.
The same measure, in the same setting: the result for `COc1ccc(COC(=O)C2=C(CC(C)C)NC(=O)NC2c2ccccc2)cc1` (centres undefined) reads “Non-Toxic”; that for `CC1=C(C(=O)OCc2ccc3c(c2)OCO3)C(c2ccoc2)NC(=O)N1` (centres undefined), “Non-Toxic”.
Still for that read-out and setting: the result for `COc1ccc(COC(=O)C2=C(C)NC(=S)NC2c2ccccc2)cc1` (centres undefined) reads “Non-Toxic”; that for `COc1ccc(COC(=O)C2=C(C)N(C)C(=O)N(C)C2c2ccccc2)cc1` (centres undefined), “Non-Toxic”.
As for `COc1ccc(COC(=O)C2=C(C3CCCCC3)NC(=O)NC2c2ccccc2)cc1` (centres undefined), the Activity entry was “Non-Toxic”.
With `CC1=C(C(=O)NCc2ccc3c(c2)OCO3)C(c2ccccc2)NC(=O)N1` (centres undefined), the Activity result is on record as “Non-Toxic”.
With `CC1=C(C(=O)OCc2ccccc2Cl)C(c2ccccc2)NC(=O)N1` (centres undefined), the Activity entry is recorded as “Non-Toxic”.
Regarding `COc1ccc(COC(=O)C2=C(Cc3ccccc3)NC(=O)NC2c2ccccc2)cc1` (centres undefined), the Activity entry is reported as “Non-Toxic”.
Take `COc1ccc(COC(=O)C2=C(CNC(=O)c3ccccc3)NC(=O)NC2c2ccccc2)cc1` (centres undefined): the Activity result was “Non-Toxic”.
For the molecule `CCCCCC1=C(C(=O)OCc2ccc(OC)cc2)C(c2ccccc2)NC(=O)N1` (centres undefined), the Activity result is reported as “Non-Toxic”.
The same measure, in the same setting: to `COc1ccc(COC(=O)C2=C(C)NC(=O)NC2c2ccc(F)cc2)cc1` (centres undefined) belongs “Non-Toxic”.
The same measure, in the same setting: the result for `COc1ccc(COC(=O)C2=C(C)N(C)C(=O)NC2c2ccco2)cc1` (centres undefined) reads “Non-Toxic”; that for `CC1=C(C(=O)OCc2ccc3c(c2)OCO3)C(c2ccco2)NC(=O)N1C` (centres undefined), “Non-Toxic”.
On the same count and under the same terms, to `COc1cccc(COC(=O)C2=C(C)N(C)C(=O)NC2c2ccco2)c1` (centres undefined) belongs “Non-Toxic”; to `COc1ccc(COC(=O)C2=C(c3ccccc3)NC(=O)NC2c2ccccc2)cc1` (centres undefined), “Non-Toxic”.
`COc1ccc(COC(=O)C2=C(C)NC(=O)NC2C2CC2)cc1` (centres undefined): the Activity result is on record as “Non-Toxic”.
`COc1ccc(COC(=O)C2=C(C)NC(=O)NC2c2cccs2)cc1` (centres undefined): the Activity entry is on record as “Non-Toxic”.
On the same count and under the same terms, the result for `COc1ccc(COC(=O)C2=C(C)N(C)C(=O)NC2c2ccccc2)cc1` (centres undefined) reads “Non-Toxic”.
Turning to `COc1ccc(COC(=O)C2=C(C)NC(=O)NC2c2cccc(Br)c2)cc1` (centres undefined), the Activity result was “Non-Toxic”.
With `CC1=C(C(=O)OCc2ccccc2C)C(c2ccccc2)NC(=O)N1` (centres undefined), the Activity entry is given as “Non-Toxic”.
Consider `COc1ccc(COC(=O)C2=C(C)NC(=O)NC2c2ccccc2F)cc1` (centres undefined), for which the Activity entry is listed as “Non-Toxic”.
In the case of `COc1ccc(COC(=O)C2=C(C)NC(=O)NC2c2cccc(F)c2)cc1` (centres undefined), the Activity entry is “Non-Toxic”.
Turning to `COc1cccc(COC(=O)C2=C(C)NC(=O)NC2c2ccccc2)c1` (centres undefined), the Activity entry is listed as “Non-Toxic”.

The target of another data set is T1, Sodium/iodide cotransporter (Rattus norvegicus, UniProt Q63008).
T1 sequence (Q63008 whole entry): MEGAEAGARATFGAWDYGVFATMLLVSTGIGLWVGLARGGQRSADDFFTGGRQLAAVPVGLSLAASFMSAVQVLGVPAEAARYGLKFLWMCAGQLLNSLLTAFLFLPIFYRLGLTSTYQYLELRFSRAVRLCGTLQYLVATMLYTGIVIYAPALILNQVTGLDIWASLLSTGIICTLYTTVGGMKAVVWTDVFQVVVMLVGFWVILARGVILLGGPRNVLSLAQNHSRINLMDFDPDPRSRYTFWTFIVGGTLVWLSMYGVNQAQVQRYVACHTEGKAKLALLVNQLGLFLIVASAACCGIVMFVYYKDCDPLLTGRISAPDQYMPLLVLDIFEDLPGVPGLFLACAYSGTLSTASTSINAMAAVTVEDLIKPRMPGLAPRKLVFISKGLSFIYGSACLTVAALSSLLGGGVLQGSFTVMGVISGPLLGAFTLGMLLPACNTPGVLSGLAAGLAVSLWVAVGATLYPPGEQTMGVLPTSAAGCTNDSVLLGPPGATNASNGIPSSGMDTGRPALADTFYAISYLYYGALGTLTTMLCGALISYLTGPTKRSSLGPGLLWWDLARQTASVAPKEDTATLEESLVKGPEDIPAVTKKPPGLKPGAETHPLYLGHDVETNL
In words: Inhibition of sodium iodide symporter in rat FRTL5 cells assessed as inhibition of iodide uptake using NaI/Na125I after 45 mins by scintillation counting method. It is filed as cell-based, FRTL-5.
Settings: not given
Broadly, the IC50 is the concentration needed to halve the response being measured. Take `F[B-](F)(F)c1ccc(OCc2ccccc2)cc1`: the IC50 was 400 nM.

The target of a further data set is T1, Sodium/iodide cotransporter. In words: Inhibition of sodium iodide symporter in rat FRTL5 cells assessed as inhibition of iodide uptake using Na125I after 60 mins by scintillation counting method.
Settings: not given
Format: cell-based, FRTL-5.
Take `COc1ccc(COC(=O)C2=C(C)NC(=O)NC2c2ccccc2)cc1` (centres undefined): the IC50 worked out at 400 nM.
